Consider one compound from US9872919B2, “Prodrugs for selective anticancer therapy” (THE RESEARCH FOUNDATION FOR THE STATE UNIVERSITY OF NEW YORK, priority 2012, dated 2018).

One assay concerns HCT116 xenograft tumors. Format: in vivo. How it is done: (§1) FIG. 29. In vivo anticancer efficacy of Boc-KAc-Puro. (a) Tumor growth in HCT116 xenograft model. Animals were treated with acidified saline control or Boc-KAc-Puro (50 or 150 mg/kg). Values are mean±s.d. (n=5 mice per group). ***P<0.001 compared to the control group. P=0.000716 (50 mg/kg), P=0.000349 (150 mg/kg) at 10 d. (b) Body weight change during the treatment in a was monitored as a sign of general animal health. Values are mean±s.d. (c) Tumor growth in HT29 xenograft model. Animals were treated with acidified saline control or Boc-KAc-Puro (150 mg/kg). Values are mean±s.d. (n=5 mice per group). ***P<0.001 compared to the control group. P=0.000514 (150 mg/kg) at 10 d. (d) Body weight change during the treatment in c was monitored as a sign of general animal health. Values are mean±s.d. (e) Levels of Puro-incorporated proteins were monitored by immunoblotting. Animals bearing HT29 xenograft tumor were given daily intraperitoneal administration of the prodrug at 150 mg/kg/dose for 3 d, followed by preparation of tissue lysates. The lower panel (anti-α-Tubulin) served as a loading control.
Athymic mice (NCr, female, age 6 weeks, Taconic) were subcutaneously injected with 5×10^5 cells (HCT116 or HT29) into the lower flank, then treatment was initiated when small palpable tumors had developed (>3 mm in diameter). […] Tumor volumes and body weight were monitored daily. […] Data were expressed as mean±s.d. […]

For assay [1], the system named is breast cancer cells (MCF-7 and MDA-MB-231). Briefly: PI staining cytotoxicity, breast cancer cells. Format: cell-based, human. How it is done: (§2) FIG. 17. Selective cytotoxicity by BKAc-Puro on breast cancer cells. Normal mammary gland epithelial cells (Eph4) and breast cancer cells (MCF-7 and MDA-MB-231) were grown and analyzed as in FIG. 10. BF, bright field. PI, fluorescent PI channel. BKAc-Puro can selectively cause cell death in breast cancer cells (MCF-7 and MDA-MB-231) while leaving normal Eph4 cells unharmed.
(§3) Cell number was determined by cell counting using improved Neubauer hemacytometer. Cell viability was calculated as the number of viable cells divided by the total number of cells using Trypan Blue Stain (Invitrogen) to distinguish non-viable cells. Data were obtained from duplicated samples with quadruplicate measurements. MTS based cell viability assay was performed using CellTiter 96 Aqueous Cell Proliferation Assay (Promega) according to the manufacturer's instruction. […] After additional 2-3 h incubation, the absorbance of the formazan at 490 nm was measured by the microplate reader. […] Determination of non-viable cells using PI staining was performed by adding 1 μg/ml of PI solution (Sigma) to the cell culture, prior to the examination under fluorescence microscopy (Axiovert 3, Carl Zeiss) through a×32 objective equipped with a digital imaging processor (Infinity 3, Lumenera).

In assay [2] the test system is normal mammary gland epithelial cells (Eph4). Briefly: PI staining cytotoxicity, normal mammary gland epithelial cells. Format: cell-based, mouse. How it is done: as §2, §3
In assay [3] the test system is prostate cancer cells (PC-3, DU-145 and LNCaP). Briefly: Cytotoxicity on prostate cancer cells (MTS). Format: cell-based, human. How it is done:
FIG. 19. Selective cytotoxicity by BKAc-Puro on prostate cancer cells. Prostate cancer (PC-3, DU-145, and LNCaP), colon cancer (HCT116 as a positive control sensitive to the drug), and normal colon (CCD841-CoN as a negative control) cells were grown and analyzed as in FIG. 13. BKAc-Puro can effectively cause cell death on prostate cancer cells.
as §3

The subject of assay [4] is HCT116, HT29, CCD841-CoN and Caco-2 cells. Kind of assay: Immunological detection of Puro-labeled proteins in cells. Format: cell-based, human. As to the method:
FIG. 27. Levels of Puro-incorporated proteins in the cells were monitored by immunoblotting. Indicated cell lines were treated either with vehicle control DMSO or Boc-KAc-Puro (16.9 μM) in the presence or absence of TSA (0.5 μM) for 20 h, followed by preparation of cell lysates. The lower panel (anti-α-Tubulin) serves as a loading control.
FIG. 28. Levels of Puro-incorporated proteins in the cells were monitored by immunoblotting. Indicated cell lines were treated either with vehicle control DMSO or Puro (2.1 μM) in the presence or absence of TSA (0.5 μM) for 16 h, followed by preparation of cell lysates. […] The lower panel (anti-α-Tubulin) serves as a loading control.
Cultured cells or tissue samples were sonicated in RIPA lysis buffer (1% NP-40, 0.1% SDS, 50 mM Tris-HCl pH 7.4, 150 mM NaCl, 0.5% sodium deoxycholate, 1 mM EDTA) supplemented with PMSF and protease inhibitor cocktail (Roche) on ice followed by clarification. Protein lysates were separated on sodium dodecyl sulfate-polyacrylamide gels and transferred onto nitrocellulose membranes (Whatman). The primary antibodies used were anti-puromycin (3RH11, KeraFAST) and anti-α-tubulin (Sigma-Aldrich). Proteins of interest were detected with anti-mouse secondary antibody by chemiluminescence (ECL Kit, GE Healthcare Life Sciences).

Assay [5] deals with HT29 xenograft tumor, muscle and kidney. Briefly: Immunological detection of Puro-labeled proteins in tissues of HT29 xenograft mice. Format: in vivo. The conditions noted are these: 150 mg/kg/dose daily intraperitoneal for 3 d. How it is done:
as §1, with “Animals bearing HT29 xenograft tumor were given daily intraperitoneal administration of the prodrug at 150 mg/kg/dose for 3 d, followed by preparation of tissue lysates. The lower panel (anti-α-Tubulin) served as a loading control.” left out
Cultured cells or tissue samples were sonicated in RIPA lysis buffer (1% NP-40, 0.1% SDS, 50 mM Tris-HCl pH 7.4, 150 mM NaCl, 0.5% sodium deoxycholate, 1 mM EDTA) supplemented with PMSF and protease inhibitor cocktail (Roche) on ice followed by clarification. […] Proteins of interest were detected with anti-mouse secondary antibody by chemiluminescence (ECL Kit, GE Healthcare Life Sciences). […]

Turning to `COc1ccc(C[C@H](NC(=O)[C@H](CCCCNC(C)=O)NC(=O)OC(C)(C)C)C(=O)N[C@H]2[C@@H](O)[C@H](n3cnc4c(N(C)C)ncnc43)O[C@@H]2CO)cc1` [BKAc-Puro, N-[3′-(α-Amino-p-methoxyhydrocinnamamido)-3′-deoxy-N,N-dimethyldenosinyl]-N-α-(t-butoxycarbonyl)-N-ε-acetyl-L-lysineamide], the tumor growth entry in the assay on HCT116 xenograft tumors (50 and 150 mg/kg/dose daily intraperitoneally for 10 d) was “dose-dependent inhibition of tumor growth”. In addition, in the assay with HCT116 xenograft tumors (P<0.001, 50 and 150 mg/kg, 10 d), the “tumor mass vs acidified saline control” value is “significantly smaller tumor mass”. Further, the cell death result in assay [1] is “selectively caused cell death”; in assay [2], “unharmed”; in assay [3], “effectively caused cell death”. Also, the “intensity of Puro incorporation in the presence of TSA” value in assay [4] (TSA 0.5 μM) is listed as “compromised intensity”. The “intensity of Puro incorporation, malignant vs normal and non-malignant cells” value in assay [4] (immunoblot, Boc-KAc-Puro 16.9 μM 20 h, Puro 2.1 μM 16 h) is listed as “substantially greater in malignant cancer cells”. Also, in assay [5], the “intensity of Puro incorporation in tissues” value is “substantially greater in tumors compared with normal muscle and kidney”.
